In EPA's ToxRefDB 2:

Legend:
[1] = system: primate; details: Sub-acute repeat dose toxicity; Oral; Gavage/Intubation; dose end: 5 day; group: systemic; systemic / clinical chemistry / [other] / [other] + systemic / clinical chemistry / plasma renin activity / plasma renin activity + systemic…
[2] = system: primate; details: Sub-acute repeat dose toxicity, Oral, Gavage/Intubation, dose end: 14 day, group: systemic
[3] = system: rat; details: Sub-acute repeat dose toxicity, wistar, Oral, Gavage/Intubation, dose end: 28 day, group: systemic
[4] = system: primate; details: Sub-acute repeat dose toxicity, Oral, Gavage/Intubation, dose end: 28 day, group: systemic
[5] = system: dog; details: Sub-acute repeat dose toxicity, beagle, Oral, Gavage/Intubation, dose end: 28 day, group: systemic
[6] = system: rat; details: Sub-acute repeat dose toxicity; wistar; Oral; Gavage/Intubation; dose end: 14 day; group: systemic; systemic / in life observation / clinical signs / abnormal feces + systemic / in life observation / clinical signs / erythema + systemic / …
[7] = system: rat; details: Sub-acute repeat dose toxicity, wistar, Oral, Gavage/Intubation, dose end: 14 day, group: systemic
[8] = system: rabbit; details: Sub-acute repeat dose toxicity, Oral, Gavage/Intubation, dose end: 13 day
[9] = system: rat; details: Sub-acute repeat dose toxicity, wistar, Oral, Gavage/Intubation, dose end: 14 day, group: systemic; remark: listed apart in the source
[10] = system: mouse; details: Carcinogenicity; cd1; Oral; Feed; dose end: 78 week; group: systemic; systemic / organ weight / spleen / nos
[11] = system: dog; details: Chronic toxicity, beagle, Oral, [Not Specified], dose end: 52 week, group: systemic
[12] = system: dog; details: Subchronic oral toxicity in nonrodent, beagle, Feed, dose end: 13 week, group: systemic
[13] = system: rat; details: Subchronic oral toxicity in rodents, sprague dawley, Feed, dose end: 13 week, group: systemic
[14] = system: rat; details: Combined chronic toxicity/carcinogenicity, Oral, Feed, dose end: 104 week, group: systemic
[15] = system: rat; details: Multigenerational reproductive toxicity study, wistar, Oral, Feed, dose end: 2 generation
[16] = system: mouse; details: Subchronic oral toxicity in rodents, cd1, Feed, dose end: 90 day, group: systemic, systemic / in life observation / body weight / body weight + systemic / in life observation / body weight / body weight gain
[17] = system: dog; details: Subchronic oral toxicity in nonrodent, beagle, Feed, dose end: 13 week, group: systemic, systemic / in life observation / body weight / body weight gain
[18] = system: mouse; details: Subchronic oral toxicity in rodents, cd1, Feed, dose end: 13 week, group: systemic, systemic / in life observation / body weight / body weight gain
[19] = system: dog; details: Chronic toxicity, beagle, Oral, Feed, dose end: 52 week, group: systemic
[20] = system: mouse; details: Carcinogenicity, cd1, Oral, Feed, dose end: 18 month, group: systemic
[21] = system: rat; details: Combined chronic toxicity/carcinogenicity, other, Oral, Feed, dose end: 24 month, group: systemic
[22] = system: rat; details: Subchronic oral toxicity in rodents, sprague dawley, Feed, dose end: 3 month, group: systemic, systemic / organ weight / liver / relative to body weight + systemic / pathology microscopic / liver / hypertrophy + systemic / pathology …
[23] = systemic / clinical chemistry / [other] / [other] + systemic / clinical chemistry / creatinine / creatinine + systemic / in life observation…
[24] = systemic / in life observation / body weight / body weight gain + systemic / in life observation / clinical signs / abnormal feces + …
[25] = systemic / in life observation / clinical signs / nasal discharge + systemic / in life observation / clinical signs / urine staining - …
[26] = systemic / in life observation / clinical signs / abnormal feces + systemic / in life observation / clinical signs / dialated pupils + …
[27] = systemic / clinical chemistry / alanine aminotransferase (alt/sgpt) / alanine aminotransferase (alt/sgpt) + systemic / clinical chemistry / …
[28] = systemic / in life observation / body weight / body weight + systemic / pathology microscopic / kidney / atrophy + systemic / pathology …
[29] = systemic / in life observation / clinical signs / abnormal feces + systemic / in life observation / clinical signs / body cold to touch + …
[30] = systemic / in life observation / clinical signs / body cold to touch + systemic / in life observation / clinical signs / dehydration + …
[31] = group: maternal, reproductive / reproductive performance / aborted / aborted + reproductive / reproductive performance / resorptions / resorptions
[32] = group: systemic, systemic / in life observation / body weight / body weight gain
[33] = group: systemic, systemic / in life observation / body weight / body weight gain + systemic / in life observation / body weight / body weight + systemic / in…
[34] = systemic / in life observation / clinical signs / abnormal feces + systemic / in life observation / clinical signs / salivation + systemic…
[35] = systemic / organ weight / thymus / nos
[36] = systemic / organ weight / thymus / nos + systemic / hematology / platelet / platelet + systemic / organ weight / testes / nos
[37] = systemic / in life observation / body weight / body weight + systemic / in life observation / body weight / body weight gain
[38] = systemic / in life observation / body weight / body weight + systemic / in life observation / body weight / body weight gain + systemic / …
[39] = systemic / pathology microscopic / adrenal gland / vacuolization + systemic / clinical chemistry / cholesterol / cholesterol + systemic / …
[40] = group: offspring, systemic / in life observation / clinical signs / grip strength
[41] = group: offspring, systemic / in life observation / clinical signs / grip strength + systemic / in life observation / body weight / offspring (pup) weight + …
[42] = group: parental, systemic / in life observation / body weight / body weight gain + systemic / in life observation / food consumption / food consumption + …
[43] = group: reproductive, reproductive / reproductive performance / estrous cycle / length
[44] = systemic / hematology / anemia / anemia - hemolytic + systemic / hematology / methemoglobin / methemoglobin + systemic / hematology / …
[45] = systemic / hematology / lymphocyte / lymphocyte + systemic / organ weight / kidney / nos + systemic / organ weight / testes / nos + systemic…
[46] = systemic / organ weight / testes / nos
[47] = systemic / clinical chemistry / gamma glutamyl transferase (ggt) / gamma glutamyl transferase (ggt) + systemic / clinical chemistry / …

SMILES: Cc1cc(SC2=C(O)C[C@@](CCc3ccc(N)cc3)(C(C)C)OC2=O)c(C(C)(C)C)cc1CO [CI-1029]
- LEL [1]: 750 mg/kg/day
- LOAEL [1]: > 750 mg/kg/day
- NEL [1]: < 750 mg/kg/day
- NOAEL [1]: ≥ 750 mg/kg/day
- LOAEL [2, 23]: > 1000 mg/kg/day
- NOAEL [2, 23]: ≥ 1000 mg/kg/day
- LEL [2, 24]: 100 mg/kg/day
- NEL [2, 24]: < 100 mg/kg/day
- LOAEL [3, 25]: > 1000 mg/kg/day
- NEL [3, 25]: 100 mg/kg/day
- NOAEL [3, 25]: ≥ 1000 mg/kg/day
- LEL ([3]; systemic / in life observation / clinical signs / urine staining - perineum + systemic / in life observation / body weight / body weight …): 500 mg/kg/day
- LEL ([4]; systemic / in life observation / body weight / body weight + systemic / in life observation / clinical signs / abnormal feces + systemic / …): 500 mg/kg/day
- LOAEL [4, 26]: > 750 mg/kg/day
- NOAEL [4, 26]: ≥ 750 mg/kg/day
- LOAEL [5, 27]: > 500 mg/kg/day
- NOAEL [5, 27]: ≥ 500 mg/kg/day
- LEL [5, 28]: 100 mg/kg/day
- NEL [5, 28]: < 100 mg/kg/day
- LEL [6]: 2500 mg/kg/day
- LOAEL [6]: > 5000 mg/kg/day
- NEL [6]: 1000 mg/kg/day
- NOAEL [6]: ≥ 5000 mg/kg/day
- LOAEL [7, 29]: > 5000 mg/kg/day
- NOAEL [7, 29]: ≥ 5000 mg/kg/day
- LEL [7, 30]: 500 mg/kg/day
- NEL [7, 30]: < 500 mg/kg/day
- LEL [8, 31]: 250 mg/kg/day
- LOAEL [8, 31]: > 500 mg/kg/day
- NEL [8, 31]: 100 mg/kg/day
- NOAEL [8, 31]: ≥ 500 mg/kg/day
- LEL [8, 32]: 50 mg/kg/day
- NEL [8, 32]: < 50 mg/kg/day
- LOAEL [8, 33]: > 500 mg/kg/day
- NOAEL [8, 33]: ≥ 500 mg/kg/day
- LOAEL [9, 34]: > 1000 mg/kg/day
- NEL [9, 34]: 250 mg/kg/day
- NOAEL [9, 34]: ≥ 1000 mg/kg/day
- LEL ([9]; systemic / in life observation / clinical signs / urine staining - perineum): 500 mg/kg/day

SMILES: CNC(=N[N+](=O)[O-])NCC1CCOC1 (configuration not stated) [Dinotefuran]
- LEL [10]: 3 mg/kg/day
- LOAEL [10]: 3 mg/kg/day
- NEL [10]: < 3 mg/kg/day
- NOAEL [10]: < 3 mg/kg/day
- LOAEL [11, 35]: 20 mg/kg/day
- NOAEL [11, 35]: < 20 mg/kg/day
- LEL [11, 36]: 20 mg/kg/day
- NEL [11, 36]: < 20 mg/kg/day
- LOAEL [12, 37]: 58 mg/kg/day
- NOAEL [12, 37]: < 58 mg/kg/day
- LEL [12, 38]: 58 mg/kg/day
- NEL [12, 38]: < 58 mg/kg/day
- LOAEL ([13]; systemic / pathology microscopic / adrenal gland / vacuolization): 336 mg/kg/day
- NEL [13, 39]: 34 mg/kg/day
- NOAEL [13, 39]: 34 mg/kg/day
- LEL ([13]; systemic / pathology microscopic / adrenal gland / vacuolization + systemic / organ weight / liver / relative to body weight): 336 mg/kg/day
- NEL ([14]; systemic / organ weight / uterus / relative to brain weight + systemic / organ weight / brain / relative to body weight + systemic / organ …): 1330 mg/kg/day
- LOAEL ([14]; systemic / pathology microscopic / kidney / ulcer + systemic / pathology microscopic / kidney / dilatation): 991 mg/kg/day
- NOAEL ([14]; systemic / pathology microscopic / kidney / ulcer + systemic / pathology microscopic / kidney / dilatation + systemic / pathology …): 99.7 mg/kg/day
- NEL [15, 40]: 269 mg/kg/day
- NOAEL [15, 40]: 269 mg/kg/day
- LEL [15, 41]: 935 mg/kg/day
- LOAEL [15, 41]: 935 mg/kg/day
- LEL [15, 42]: 822 mg/kg/day
- LOAEL [15, 42]: 822 mg/kg/day
- NEL [15, 42]: 241 mg/kg/day
- NOAEL [15, 42]: 241 mg/kg/day
- LEL [15, 43]: 907 mg/kg/day
- LOAEL [15, 43]: 907 mg/kg/day
- NEL [15, 43]: 268 mg/kg/day
- NOAEL [15, 43]: 268 mg/kg/day
- LEL [16]: 10600 mg/kg/day
- LOAEL [16]: 10600 mg/kg/day
- NEL [16]: 4440 mg/kg/day
- NOAEL [16]: 4440 mg/kg/day

SMILES: COc1cccc(C(=O)NN(C(=O)c2cc(C)cc(C)c2)C(C)(C)C)c1C [Methoxyfenozide]
- LEL [17]: 0.6 mg/kg/day
- LOAEL [17]: > 198 mg/kg/day
- NEL [17]: < 0.6 mg/kg/day
- NOAEL [17]: ≥ 198 mg/kg/day
- LEL [18]: 1150 mg/kg/day
- LOAEL [18]: 1150 mg/kg/day
- NEL [18]: 428 mg/kg/day
- NOAEL [18]: 428 mg/kg/day
- LOAEL [19, 44]: 1150 mg/kg/day
- NEL [19, 44]: 9.8 mg/kg/day
- NOAEL [19, 44]: 106 mg/kg/day
- LEL ([19]; systemic / hematology / platelet / platelet + systemic / hematology / erythrocyte (rbc) count differential / erythrocyte (rbc)): 106 mg/kg/day
- LOAEL [20, 45]: > 1020 mg/kg/day
- NOAEL [20, 45]: ≥ 1020 mg/kg/day
- LEL [20, 46]: 10 mg/kg/day
- NEL [20, 46]: < 10 mg/kg/day
- LEL [21, 47]: 411 mg/kg/day
- NEL [21, 47]: 10.2 mg/kg/day
- LOAEL ([21]; systemic / in life observation / mortality / mortality + systemic / organ weight / liver / absolute + systemic / organ weight / liver / …): 1040 mg/kg/day
- LEL [22]: 353 mg/kg/day
- LOAEL [22]: 353 mg/kg/day
- NEL [22]: 69.3 mg/kg/day
- NOAEL [22]: 69.3 mg/kg/day
